Laboratory results published in patent publication US9499550B2 (BRISTOL-MYERS SQUIBB COMPANY, priority 2012, dated 2016).
Like-named read-outs stand apart in the source and are kept apart here.

Key:
[1] = tested on: HCV genotype 1b (Con1) replicon in HUH-7 cells; test: HCV replicon luciferase reporter assay, genotype 1b; format: cell-based; conditions: 3 days incubation, read-out: LE_1b (EC50, range)
Procedure, shortened: (§1)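 Replicon inhibition for both genotypes was measured as Renilla luciferase signal (EnduRen, 7.5 μM final, 2 h) after 3-day, 37° C exposure of replicon-bearing HUH-7 cells in 4% FCS DMEM, 0.5% DMSO. The 1b construct carries S1179I; the 1a H77 construct carries P1496L and S2204I. Twenty-point, 3-fold dilutions were fitted four-parametrically for EC50, and CC50 was taken from multiplexed Cell Titer-Blue.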

[2] = tested on: HCV genotype 1a (H77 strain) replicon in HUH-7 cells; test: HCV replicon luciferase reporter assay, genotype 1a; format: cell-based; conditions: 3 days incubation, read-out: LE_1a (EC50, range)
Procedure, shortened: as §1

[3] = Hepatitis C virus, Huh-7, 72 h, HCV genotype 1b replicon luciferase
[4] = Hepatitis C virus, Huh-7, 72 h, HCV genotype 1a replicon luciferase
[5] = Hepatitis C virus, Huh-7, 72 h, HCV genotype 1b replicon luciferase assay, range class
[6] = Hepatitis C virus, Huh-7, 72 h, HCV genotype 1a replicon luciferase assay, range class

| SMILES | EC50 [1, 3] | EC50 [2, 4] | also measured |
| --- | --- | --- | --- |
| CC[C@@H]1C[C@@H](C)CC/C=C\[C@@H]2C[C@@]2(C(=O)NS(=O)(=O)C2(C)CC2)NC(=O)[C@@H]2C[C@@H](Oc3nccc4c5c(ccc34)OCCO5)CN2C(=O)[C@H]1NC(=O)OC(C)(C)C [Compound 5339, tert-butyl ((2R,6S,7R,9S,13aS,14aR,16aS,Z)-2-((2,3-dihydro-[1,4]dioxino[2,3-f]isoquinolin-7-yl)oxy)-7-ethyl-9-methyl-14a-(((1-methylcyclopropyl)sulfonyl)carbamoyl)-5,16-dioxo-1,2,3,5,6,7,8,9,10,11,13a,14,14a,15,16,16a-hexadecahydrocyclopropa[e]pyrrolo[1,2-a][1,4]diazacyclopentadecin-6-yl)carbamate] | < 5.46 nM | 4.82 to 103 nM | – |
| C[C@@H]1CC/C=C\[C@@H]2C[C@@]2(C(=O)NS(=O)(=O)C2(CF)CC2)NC(=O)[C@@H]2C[C@@H](Oc3nc4c(c5ccccc35)OCCC4)CN2C(=O)[C@@H](NC(=O)OC(C)(C)C(C)(F)F)[C@H](C)C1 [Compound 6040, 3,3-difluoro-2-methylbutan-2-yl((2R,6S,7R,9R,13aS,14aR,16aS,Z)-2-((3,4-dihydro-2H-pyrano[3,2-c]isoquinolin-6-yl)oxy)-14a-(((1-(fluoromethyl)cyclopropyl)sulfonyl)carbamoyl)-7,9-dimethyl-5,16-dioxo-1,2,3,5,6,7,8,9,10,11,13a,14,14a,15,16,16a-hexadecahydrocyclopropa[e]pyrrolo[1,2-a][1,4]diazacyclopentadecin-6-yl)carbamate] | – | – | EC50 ([1]; HCV genotype 1b replicon luciferase): 0.51 to 1 nM; EC50 ([2]; HCV genotype 1a replicon luciferase): 1.01 to 5 nM |
| CCCOc1ccc2c(O[C@@H]3C[C@H]4C(=O)N[C@]5(C(=O)NS(=O)(=O)C6CC6)C[C@H]5/C=C\CC[C@H](C)C[C@@H](C)[C@H](NC(=O)OC(C)(C)C(F)(F)F)C(=O)N4C3)nccc2c1 [Compound 5170, 1,1,1-trifluoro-2-methylpropan-2-yl((2R,6S,7R,9S,13aS,14aR,16aS,Z)-14a-((cyclopropylsulfonyl)carbamoyl)-7,9-dimethyl-5,16-dioxo-2-((6-propoxyisoquinolin-1-yl)oxy)-1,2,3,5,6,7,8,9,10,11,13a,14,14a,15,16,16a-hexadecahydrocyclopropa[e]pyrrolo[1,2-a][1,4]diazacyclopentadecin-6-yl)carbamate] | < 5.46 nM | 4.82 to 103 nM | – |
| COc1ccc2c(O[C@@H]3C[C@H]4C(=O)N[C@]5(C(=O)NS(=O)(=O)C6CC6)C[C@H]5/C=C\CC[C@H](C)C[C@@H](C)[C@H](NC(=O)OC(C)(C)C(F)(F)F)C(=O)N4C3)nc(-c3ccc(OC)c(Cl)c3)cc2c1 [Compound 3051, 1,1,1-trifluoro-2-methylpropan-2-yl((2R,6S,7R,9S,13aS,14aR,16aS,Z)-2-((3-(3-chloro-4-methoxyphenyl)-6-methoxyisoquinolin-1-yl)oxy)-14a-((cyclopropylsulfonyl)carbamoyl)-7,9-dimethyl-5,16-dioxo-1,2,3,5,6,7,8,9,10,11,13a,14,14a,15,16,16a-hexadecahydrocyclopropa[e]pyrrolo[1,2-a][1,4]diazacyclopentadecin-6-yl)carbamate] | – | – | EC50 [1, 5]: < 5.46 nM; EC50 [2, 6]: 4.82 to 103 nM |
| COCCOc1cnc(O[C@@H]2C[C@H]3C(=O)N[C@]4(C(=O)NS(=O)(=O)C5(C)CC5)C[C@H]4/C=C\CC[C@@H](C)C[C@@H](C)[C@H](NC(=O)OC(C)(C)C)C(=O)N3C2)c2ccc(OC)cc12 [Compound 1153, tert-butyl ((2R,6S,7R,9R,13aS,14aR,16aS,Z)-2-((6-methoxy-4-(2-methoxyethoxyl)isoquinolin-1-yl)oxy)-7,9-dimethyl-14a-(((1-methylcyclopropyl)sulfonyl)carbamoyl)-5,16-dioxo-1,2,3,5,6,7,8,9,10,11,13a,14,14a,15,16,16a-hexadecahydrocyclopropa[e]pyrrolo[1,2-a][1,4]diazacyclopentadecin-6-yl)carbamate] | – | – | EC50 [1, 5]: < 5.46 nM; EC50 [2, 6]: < 5.46 nM |
| [2H]C([2H])([2H])C(OC(=O)N[C@@H]1C(=O)N2C[C@H](Oc3nnc(OC)c4ccccc34)C[C@H]2C(=O)N[C@]2(C(=O)NS(=O)(=O)C3(C)CC3)C[C@H]2/C=C\CC[C@@H](C)C[C@H]1CC)(C([2H])([2H])[2H])C(F)(F)F [Compound 5020] | < 5.46 nM | < 5.46 nM | – |
| CCCOc1ccc2c(O[C@@H]3C[C@H]4C(=O)N[C@]5(C(=O)NS(=O)(=O)C6CC6)C[C@H]5/C=C\CC[C@@H](C)C[C@@H](C)[C@H](NC(=O)OC(C)(C)C(F)(F)F)C(=O)N4C3)nccc2c1 [Compound 5171, 1,1,1-trifluoro-2-methylpropan-2-yl((2R,6S,7R,9R,13aS,14aR,16aS,Z)-14a-((cyclopropylsulfonyl)carbamoyl)-7,9-dimethyl-5,16-dioxo-2-((6-propoxyisoquinolin-1-yl)oxy)-1,2,3,5,6,7,8,9,10,11,13a,14,14a,15,16,16a-hexadecahydrocyclopropa[e]pyrrolo[1,2-a][1,4]diazacyclopentadecin-6-yl)carbamate] | < 5.46 nM | < 5.46 nM | – |
| CC[C@@H]1C[C@@H](C)CC/C=C\[C@@H]2C[C@@]2(C(=O)NS(=O)(=O)C2CC2)NC(=O)[C@@H]2C[C@@H](Oc3nccc4c5c(ccc34)N(C)CCO5)CN2C(=O)[C@H]1NC(=O)NC(C)(C)C [Compound 5315, (2R,6S,7R,9S,13aS,14aR,16aS,Z)-6-(3-(tert-butyl)ureido)-N-(cyclopropylsulfonyl)-7-ethyl-9-methyl-2-((4-methyl-3,4-dihydro-2H-[1,4]oxazino[2,3-f]isoquinolin-7-yl)oxy)-5,16-dioxo-1,2,3,5,6,7,8,9,10,11,13a,14,14a,15,16,16a-hexadecahydrocyclopropa[e]pyrrolo[1,2-a][1,4]diazacyclopentadecine-14a-carboxamide] | 4.82 to 103 nM | 4.82 to 103 nM | – |
| CC[C@@H]1C[C@H](C)CC/C=C\[C@@H]2C[C@@]2(C(=O)NS(=O)(=O)C2CC2)NC(=O)[C@@H]2C[C@H](Oc3ncc(OC)c4ccc(F)cc34)CN2C(=O)[C@@H]1NC(=O)OC(C)(C)C [Compound 4001, tert-butyl tert-butyl (2R,6S,7R,9R,13aS,14aR,16aS,Z)-14a-(cyclopropylsulfonylcarbamoyl)-7-ethyl-2-(7-fluoro-4-methoxyisoquinolin-1-yloxy)-9-methyl-5,16-dioxo-1,2,3,5,6,7,8,9,10,11,13a,14,14a,15,16,16a-hexadecahydrocyclopropa[e]pyrrolo[1,2-a][1,4]diazacyclopentadecin-6-ylcarbamate] | < 5.46 nM | < 5.46 nM | – |
| COc1ccc2c(O[C@@H]3C[C@H]4C(=O)N[C@]5(C(=O)NS(=O)(=O)C6CC6)C[C@H]5/C=C\CC[C@H](C)C[C@@H](C)[C@H](NC(=O)OC5C[C@@H]6C[C@@H]6C5)C(=O)N4C3)nc(-c3ccc(OC(C)C)cn3)cc2c1 (stereo partly drawn) [Compound 5208, (1R,3r,5S)-bicyclo[3.1.0]hexan-3-yl((2R,6S,7R,9S,13aS,14aR,16aS,Z)-14a-((cyclopropylsulfonyl)carbamoyl)-2-((3-(5-isopropoxypyridin-2-yl)-6-methoxyisoquinolin-1-yl)oxy)-7,9-dimethyl-5,16-dioxo-1,2,3,5,6,7,8,9,10,11,13a,14,14a,15,16,16a-hexadecahydrocyclopropa[e]pyrrolo[1,2-a][1,4]diazacyclopentadecin-6-yl)carbamate] | < 5.46 nM | < 5.46 nM | – |
